# Read-outs that look alike come from different tables or passages of the source.
# How the values were obtained:
# [1] = biological target: T1, α-Glucosidase (maltase from Saccharomyces cerevisiae) (Saccharomyces cerevisiae, UniProt P53341); experiment: biochemical; assay type: biochemical
# T1 construct: purchased Merck/Sigma-Aldrich
# Text: Chrysanthellin B was purchased from Extrasynthese (Genay, France). 2-(N-morpholino)-ethanesulfonic acid (MES) buffer was purchased from ThermoFisher Scientific (Waltham, Massachusetts, USA). NaN3 was obtained from Carlo Erba Reagents (Val-de-Reuil, France). Pure water was obtained using an Evoqua ultra-pure water production system (Water Technologies, Günzburg, Germany). The RED-NHS protein labeling kit was from NanoTemper Technologies (Munich, Germany).
# α-Glucosidase hydrolytic activity was assessed by monitoring the conversion of p-nitrophenyl-α-D-glucopyranoside (PNPg) into p-nitrophenol (PNP). PNP levels were quantified at 405 nm. […] A series of PNP dilutions in buffer was used to generate the standard curve to convert PNP absorbance values into concentrations. The final α-glucosidase concentration corresponded to an activity of 30 µM of PNP/min for negative control without inhibitor. In each microplate well, 20 µL of test products diluted in a 50:50 (v:v) water:ethanol mixture (or 20 µL of this solvent mixture for the negative controls), 20 µL of α-glucosidase in buffer (or 20 µL of buffer for the blanks), and 100 µL of buffer were incubated in a microplate reader at 37 °C for 10 min. Then, 20 µL of PNPg substrate (2.5 mM in buffer) was added to each well to initiate the reaction. A FLUO Star Omega (BMG LabTech, Champigny sur Marne, France) 96-well microplate reader, thermostatically controlled at 37 °C, was used to measure the absorbance at 405 nm, every minute for 30 min. […] (1) % Relative activity=Residual activity/Negative control activity×100
# α-glucosidase [2] = conditions: cited from earlier work
# lipase = test system: lipase; parameters: method as in PMID 36105167; conditions: based on IC50 values; cited from earlier work
# α-amylase = test system: α-amylase; parameters: method as in PMID 30050443; conditions: based on IC50 values; cited from earlier work
# [3] = biological target: T1, α-Glucosidase (maltase from Saccharomyces cerevisiae); experiment: α-Glucosidase inhibition kinetics (Lineweaver–Burk, SigmaPlot fit); assay type: biochemical
# Experimental: α-glucosidase inhibition kinetics was investigated in vitro using the method described in Section 4.2.1. Inhibition models were determined by analysis of the Lineweaver–Burk plots using four concentrations of substrate and four concentrations of test products (including a “0”, without inhibitor). All initial rates were fitted to all enzymatic kinetic models with one substrate and one inhibitor provided by the Enzyme Kinetics Module of Sigma Plot 12 (Systat Software Inc., San Jose, CA, USA), using non-linear least-square regression models to determine the inhibition model and calculate the inhibitory constant (Ki).
# Equations (2) and (3) (below) were used for data analysis and corresponded to the inhibition models that best fitted our data according to the SigmaPlot software 12 (Systat Software Inc., San Jose, CA, USA) [73]. […] Ki’ corresponds to the second inhibitor dissociation constant because, in a mixed model, the constants for E + I ↔ EI and ES + I ↔ ESI are different. Factor α, given by SigmaPlot (Systat Software Inc., San Jose, CA, USA), represents the equilibrium between Ki’ and Ki. (2) v =Vmax/1+(Km/[S])×(1+[I]/Ki) (3) v =Vmax/(1+[I]/Ki^’)+Km/[S]×(1+[I]/Ki)
# α-glucosidase [4] = biological target: T2, α-glucosidase (Saccharomyces cerevisiae, UniProt P53341); experiment: Interactions with α-glucosidase by fluorescence spectrum changes; assay type: binding; conditions: excitation 285 nm, emission 320–440 nm
# T2 construct: purchased Merck/Sigma-Aldrich
# Experimental: Potassium phosphate buffer (0.1 M, pH 6.8) was used as the reaction buffer. The final α-glucosidase concentration in the wells was 1.275 mg/mL. For each microplate well, 20 µL of test product in a 50:50 (v:v) water:ethanol mixture (or 20 µL of this solvent mixture for the controls without products), 100 µL of α-glucosidase in buffer (or 100 µL of buffer for the blanks), and 40 µL of buffer were incubated at 25 °C in a microplate reader for 5 min. Then, fluorescence was measured at an excitation of 285 nm and an emission scan ranging from 320 nm to 440 nm.
# T1 sequence (P53341 whole entry): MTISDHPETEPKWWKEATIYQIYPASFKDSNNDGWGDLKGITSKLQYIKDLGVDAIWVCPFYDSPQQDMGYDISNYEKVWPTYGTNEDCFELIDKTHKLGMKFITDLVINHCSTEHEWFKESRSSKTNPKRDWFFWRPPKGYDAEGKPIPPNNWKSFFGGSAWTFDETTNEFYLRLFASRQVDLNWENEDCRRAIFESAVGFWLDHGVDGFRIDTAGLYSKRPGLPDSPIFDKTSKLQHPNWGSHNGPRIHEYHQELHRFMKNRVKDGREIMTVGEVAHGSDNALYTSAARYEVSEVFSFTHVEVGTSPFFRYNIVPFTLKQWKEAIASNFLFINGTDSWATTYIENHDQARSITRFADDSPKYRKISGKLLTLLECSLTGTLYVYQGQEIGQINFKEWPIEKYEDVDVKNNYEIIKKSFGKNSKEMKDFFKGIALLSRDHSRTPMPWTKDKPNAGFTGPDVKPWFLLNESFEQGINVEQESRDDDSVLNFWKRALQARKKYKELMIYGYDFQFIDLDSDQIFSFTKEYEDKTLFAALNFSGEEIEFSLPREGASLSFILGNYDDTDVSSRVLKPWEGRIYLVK
# T2 sequence (P53341 whole entry): as above
smiles,measurement,setting,value
CC1OC(OC2C(O)COC(OC3C(C)OC(OC4C(OC(=O)C56CCC(C)(C)CC5C5=CCC7C8(C)CCC(OC9OC(CO)C(O)C(O)C9O)C(C)(CO)C8CCC7(C)C5(C)CC6O)OCC(O)C4O)C(O)C3O)C2O)C(O)C(O)C1O (stereo not drawn) [Chrysanthellin B],inhibitory effect on α-glucosidase relative to acarbose,[1],five times lower
same,IC50,"[1]; PNPg substrate, pH 6.8, 37 °C, read-out: IC50 α-Glucosidase (converted)",127 µM
O=C(/C=C/c1ccc(O)c(O)c1)O[C@@H]1C[C@](O)(C(=O)O)C[C@@H](O)[C@H]1O [Chlorogenic acid],α-glucosidase inhibition mechanism,α-glucosidase [2],mixed
O=C1C[C@@H](c2ccc(O)c(O)c2)Oc2cc(O)cc(O)c21 [eriodictyol],lipase inhibitory activity relative to orlistat,lipase,more than two times higher
O=c1cc(-c2ccc(O)c(O)c2)oc2cc(O)cc(O)c12 [Luteolin],α-glucosidase inhibition mechanism,α-glucosidase [2],non-competitive
same,IC50,[1],1.4 µM
O=c1cc(-c2ccc(O)c(O)c2)oc2cc(O[C@@H]3O[C@H](CO)[C@@H](O)[C@H](O)[C@H]3O)cc(O)c12 [luteolin-7-O-glucoside],lipase inhibitory activity relative to orlistat,lipase,more than two times higher
CC1(C)CC[C@]2(C(=O)O)CC[C@]3(C)C(=CC[C@@H]4[C@@]5(C)CC[C@H](O)C(C)(C)[C@@H]5CC[C@]43C)[C@@H]2C1 [Oleanolic acid],"inhibitory activity on α-glucosidase, times higher than acarbose",α-glucosidase [2],162 times
C/C=C1/[C@H](O[C@@H]2O[C@H](CO)[C@@H](O)[C@H](O)[C@H]2O)OC=C(C(=O)OC)[C@H]1CC(=O)OCCc1ccc(O)c(O)c1 [Oleuropein],IC50,[1],5.74 µM
"O=C(/C=C/c1ccc(O)c(O)c1)O[C@H]1[C@H](O)C[C@](O)(C(=O)O)C[C@H]1OC(=O)/C=C/c1ccc(O)c(O)c1 [4,5-dicaffeoylquinic acid]","inhibitory activity on α-amylase, times higher than acarbose",α-amylase,11.4 times
"O=C(/C=C/c1ccc(O)c(O)c1)O[C@@H]1CC(O)(C(=O)O)C[C@@H](OC(=O)/C=C/c2ccc(O)c(O)c2)C1O (stereo partly drawn) [3,5-dicaffeoylquinic acid]","inhibitory activity on α-amylase, times higher than acarbose",α-amylase,9.4 times
"O=C(/C=C/c1ccc(O)c(O)c1)O[C@@H]1C[C@](OC(=O)/C=C/c2ccc(O)c(O)c2)(C(=O)O)C[C@@H](O)[C@H]1O [1,5-dicaffeoylquinic acid]","inhibitory activity on α-amylase, times higher than acarbose",α-amylase,6.2 times
O=C(/C=C/c1ccc(O)c(O)c1)O[C@@H]1C[C@@](OC(=O)/C=C/c2ccc(O)c(O)c2)(C(=O)O)C[C@@H](O)[C@@H]1O [cynarin],"inhibitory activity on α-amylase, times higher than acarbose",α-amylase,4.8 times
"O=C(/C=C/c1ccc(O)c(O)c1)O[C@@H]1[C@H](O)C[C@@](O)(C(=O)O)C[C@H]1OC(=O)/C=C/c1ccc(O)c(O)c1 [3,4-dicaffeoylquinic acid]","inhibitory activity on α-amylase, times higher than acarbose",α-amylase,7.2 times
O=C(/C=C/C=C/c1ccc2c(c1)OCO2)N1CCCCC1 [Piperine],α-glucosidase inhibition mechanism,α-glucosidase [2],mixed
"C[C@H]1O[C@H](O[C@H]2[C@H](O)[C@@H](O)[C@@H](O[C@H]3[C@H](O)[C@@H](O)C(O)O[C@@H]3CO)O[C@@H]2CO)[C@H](O)[C@@H](O)[C@@H]1N[C@H]1C=C(CO)[C@@H](O)[C@H](O)[C@H]1O (stereo partly drawn) [Acarbose, acarbose]",Inhibition type,[3]; best-fitting model,Competitive (full)
same,Vmax,[3]; α-glucosidase in the presence of the inhibitor,0.00182 mM/min
same,α-glucosidase fluorescence intensity with increasing concentrations,α-glucosidase [4],less obvious effect

# — article PMC9966338, “Inhibitory Potential of α-Amylase, α-Glucosidase, and Pancreatic Lipase by a Formulation of Five Plant Extracts: TOTUM-63” (International Journal of Molecular Sciences, 2023)
